Laboratory results published in patent publication US20240294498A1, “FACTOR XIIA INHIBITORS” (Lunac Therapeutics Ltd, priority 2021, published 2024).
pKi: −log10 of the molar value.

Key:
Format in all cases: biochemical
FXa = FXa (Homo sapiens, UniProt P00742); test: Determination of selectivity: FXa inhibition (chromogenic substrate S2765); details: fold selectivity for FXIIa over FXa (human); category
Protocol: (§1) The activities of the compounds of the invention have been determined in vitro using the following assays protocols for the screening of activity of FXIIa and other proteases. Each of these assays were performed in a purified system employing the use of chromogenic assays in microplate plate wells. Chromogenic peptide substrates mimicking natural protein substrates are attached via an amide bond to a chromogenic group. Paranitroaniline (pNA) is released from the peptide following catalyses by the proteolytic enzyme; the absorbance increases and can be monitored at 405 nm.
(§2) All compounds were dissolved in 100% (v/v) DMSO to a stock concentration of 10 mM, the highest concentration of compound used in each assay is 500 μM. The final concentrations of DMSO were 5% (v/v) in 50 mM Tris 137 mM NaCl pH 7.4. Where no test compound was added a final concentration of 5% DMSO was employed.
(§3) To determine selectivity of test compounds, these test compounds were assayed for inhibitory activity against other serine proteases including FXa and thrombin. Essentially compounds at increasing concentrations were incubated with each enzyme: FXa (5 nM) and thrombin (5 nM), for 10 mins at 37° C. followed by the appropriate chromogenic substrate, S2765 (Chromogenix) and GPR (Bachem) respectively in 50 mM Tris, 137 mM NaCl, pH 7.4. Substrates were used at a concentration equal to the appropriate experimentally derived KM. Kinetic readings at 405 nm were monitored every 12 secs for a total duration of 3 hours at 37° C. Gradients of initial rates were determined and employed to calculate IC50 values. Values of IC50 were converted to Ki values based on the formula:
(§4) Ki═IC50/(1+[Substrate]/Km)
(§5) Where [Substrate] denotes the concentration of substrate used in the assay and Km is the determined value of each enzyme with its own substrate.
The fold selectivity for FXIIa over FXa for the compounds of the invention has been categorised based on the fold selectivity values, the categories being “o”, “oo” and “ooo”. The category “o” refers to fold selectivity values less than 10 (e.g. a fold selectivity value of less than 10 and greater than 1). The category “oo” refers to a fold selectivity value of 10 to 100. The category “ooo” refers to fold selectivity values greater than 100.

FXIIa = target: T1, FXIIa (Homo sapiens, UniProt P00748); test: Determination of Factor XIIa inhibition (chromogenic substrate S-2302); details: human FXIIa alpha, Ki category
T1 construct: FXIIa alpha
T1 sequence (P00748 373-615 limits assumed): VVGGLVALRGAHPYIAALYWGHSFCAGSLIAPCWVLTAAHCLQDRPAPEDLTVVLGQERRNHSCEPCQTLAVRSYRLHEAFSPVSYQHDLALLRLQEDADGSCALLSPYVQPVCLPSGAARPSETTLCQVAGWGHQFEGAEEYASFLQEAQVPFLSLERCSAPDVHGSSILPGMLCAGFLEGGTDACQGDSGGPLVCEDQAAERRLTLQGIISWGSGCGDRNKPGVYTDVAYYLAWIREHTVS
T1 sequence (P00748 20-372 partner limits assumed): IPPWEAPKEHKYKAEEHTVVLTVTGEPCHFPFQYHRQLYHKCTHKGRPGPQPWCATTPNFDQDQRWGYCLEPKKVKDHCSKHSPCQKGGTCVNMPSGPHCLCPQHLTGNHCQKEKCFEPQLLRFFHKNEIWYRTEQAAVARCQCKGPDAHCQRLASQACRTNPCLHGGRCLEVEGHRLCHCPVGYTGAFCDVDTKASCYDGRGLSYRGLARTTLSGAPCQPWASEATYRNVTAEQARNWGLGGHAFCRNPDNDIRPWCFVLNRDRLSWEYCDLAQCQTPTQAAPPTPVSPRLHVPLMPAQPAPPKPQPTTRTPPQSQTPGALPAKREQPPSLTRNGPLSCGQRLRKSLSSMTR
Protocol: as §1, §2
Factor XIIa activity was measured using a chromogenic substrate S-2302 (Chromogenix). Various concentrations of compound were incubated with 10 nM of FXIIa and incubated at 37° C. for 10 minutes in 50 mM Tris, 137 mM NaCl, pH 7.4, prior to the addition of the chromogenic substrate S-2302 at a concentration equal the to the experimentally derived KM. Kinetic readings at 405 nm were monitored every 12 secs for a total duration of 3 hours at 37° C. Gradients of initial rates were determined and employed to calculate IC50 values.
The activity of the compounds of the invention has been categorised based on the Ki values, the categories being “†”, “*”, “**” and “***”. […] The category “**” refers to compounds with a Ki value of 0.2 μM to 0.8 μM.
as §4, §5

thrombin = target: T2, thrombin (Homo sapiens, UniProt P00734); test: Determination of selectivity: thrombin inhibition (chromogenic substrate GPR); details: fold selectivity for FXIIa over thrombin (human); category
T2 construct: FXa (5 nM) and thrombin (5 nM)
Protocol: as §1, §2, §3, §4, §5
The fold selectivity for FXIIa over thrombin for the compounds of the invention has been categorised based on the fold selectivity values, the categories being “+”, “++” and “+++”. The category “+” refers to fold selectivity values less than 10 (e.g. a fold selectivity value of less than 10 and greater than 1). The category “++” refers to a fold selectivity value of 10 to 100. The category “+++” refers to fold selectivity values greater than 100.

FXa, sequence (P00742 235-488 limits assumed): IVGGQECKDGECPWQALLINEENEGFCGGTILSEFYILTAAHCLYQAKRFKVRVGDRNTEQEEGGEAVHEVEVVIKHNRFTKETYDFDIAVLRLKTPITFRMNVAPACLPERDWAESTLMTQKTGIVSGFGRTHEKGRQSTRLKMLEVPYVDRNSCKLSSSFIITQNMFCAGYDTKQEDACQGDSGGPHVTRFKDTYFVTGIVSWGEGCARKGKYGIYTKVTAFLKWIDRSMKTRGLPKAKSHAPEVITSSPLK
FXa, sequence (P00742 41-179 partner limits assumed): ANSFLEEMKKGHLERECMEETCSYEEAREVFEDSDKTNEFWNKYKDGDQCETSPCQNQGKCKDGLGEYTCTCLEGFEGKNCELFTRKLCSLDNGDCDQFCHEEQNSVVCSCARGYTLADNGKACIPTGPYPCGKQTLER

Compound | FXa (human)/FXIIa alpha (human) (FXa) | pKi (FXIIa) | Thrombin (human)/FXIIa alpha (human) (thrombin)
CCN1CCC[C@H](C(=O)N2CCCC2)[C@@H]1C(=O)N1C[C@H](Cc2ccc(C)cc2)C[C@H]1C(=O)NCc1ccc2c(cnn2C)c1 [Example M05772, (2S,4R)-1-((2R,3S)-1-ethyl-3-(pyrrolidine-1-carbonyl)piperidine-2-carbonyl)-N-((1-methyl-1H-indazol-5-yl)methyl)-4-(4-methylbenzyl)pyrrolidine-2-carboxamide] | ∘∘∘ | 6.10 to 6.70 | +++ (fold selectivity values greater than 100)
Cc1ccc(C[C@@H]2C[C@@H](C(=O)NCc3ccc4c(cnn4C)c3)N(C(=O)[C@@H]3NCCC[C@@H]3C(=O)N3CCCC34CC4)C2)cc1 [Example M05773] | ∘∘∘ | 6.10 to 6.70 | ++ (a fold selectivity value of 10 to 100)
Cc1ccc(C[C@@H]2C[C@@H](C(=O)NCc3ccc4c(cnn4C)c3)N(C(=O)[C@@H]3NCCC[C@@H]3C(=O)N3CCC4(CC3)CC4)C2)cc1 [Example M05775, (2S,4R)-1-((2R,3S)-3-(6-azaspiro[2.5]octane-6-carbonyl)piperidine-2-carbonyl)-N-((1-methyl-1H-indazol-5-yl)methyl)-4-(4-methylbenzyl)pyrrolidine-2-carboxamide] | ∘∘∘ | 5.30 to 6.10 | ++ (a fold selectivity value of 10 to 100)
Cc1ccc(C[C@@H]2C[C@@H](C(=O)NCc3ccc4c(cnn4C)c3)N(C(=O)[C@@H]3NCCC[C@@H]3C(=O)N3CC[C@H](F)C3)C2)cc1 [Example M05777, (2S,4R)-1-((2R,3S)-3-((S)-3-fluoropyrrolidine-1-carbonyl)piperidine-2-carbonyl)-N-((1-methyl-1H-indazol-5-yl)methyl)-4-(4-methylbenzyl)pyrrolidine-2-carboxamide] | ∘∘∘ | 6.10 to 6.70 | +++ (fold selectivity values greater than 100)
Cc1ccc(C[C@@H]2C[C@@H](C(=O)NCc3ccc4c(cnn4C(F)F)c3)N(C(=O)[C@@H]3NCCC[C@@H]3C(=O)N3CCCC3)C2)cc1 [Example M05778, (2S,4R)-N-((1-(difluoromethyl)-1H-indazol-5-yl)methyl)-4-(4-methylbenzyl)-1-((2R,3S)-3-(pyrrolidine-1-carbonyl)piperidine-2-carbonyl)pyrrolidine-2-carboxamide] | ∘∘∘ | 6.10 to 6.70 | +++ (fold selectivity values greater than 100)
Cc1ccc(C[C@@H]2C[C@@H](C(=O)NCc3ccc4c(cnn4C)c3)N(C(=O)[C@@H]3NCCC[C@@H]3C(=O)N3CC[C@@H](F)C3)C2)cc1 [Example M05785, (2S,4R)-1-((2R,3S)-3-((R)-3-fluoropyrrolidine-1-carbonyl)piperidine-2-carbonyl)-N-((1-methyl-1H-indazol-5-yl)methyl)-4-(4-methylbenzyl)pyrrolidine-2-carboxamide] | ∘∘∘ | > 6.70 | +++ (fold selectivity values greater than 100)
Cc1ccc(C[C@@H]2C[C@@H](C(=O)NCc3ccc4c(cnn4C)c3)N(C(=O)[C@@H]3NCCC[C@@H]3C(=O)N3CCC(F)(F)C3)C2)cc1 [Example M05787, (2S,4R)-1-((2R,3S)-3-(3,3-difluoropyrrolidine-1-carbonyl)piperidine-2-carbonyl)-N-((1-methyl-1H-indazol-5-yl)methyl)-4-(4-methylbenzyl)pyrrolidine-2-carboxamide] | ∘∘∘ | 6.10 to 6.70 | +++ (fold selectivity values greater than 100)
Cn1ncc2cc(CNC(=O)[C@@H]3C[C@@H](Cc4ccc(C(F)(F)F)cc4)CN3C(=O)[C@@H]3NCCC[C@@H]3C(=O)N3CCCC3)ccc21 [Example M05788, (2S,4R)-N-((1-methyl-1H-indazol-5-yl)methyl)-1-((2R,3S)-3-(pyrrolidine-1-carbonyl)piperidine-2-carbonyl)-4-(4-(trifluoromethyl)benzyl)pyrrolidine-2-carboxamide] | ∘∘∘ | > 6.70 | +++ (fold selectivity values greater than 100)
Cc1ccc(O[C@@H]2C[C@@H](C(=O)NCc3ccc4c(cnn4C)c3)N(C(=O)[C@@H]3NCCC[C@@H]3C(=O)N3CCCC3)C2)cc1 [Example M05798, (2S,4R)-N-[(1-methylindazol-5-yl)methyl]-4-(4-methylphenoxy)-1-[(2R,3S)-3-(pyrrolidine-1-carbonyl)piperidine-2-carbonyl]pyrrolidine-2-carboxamide] | ∘∘∘ | 5.30 to 6.10 | +++ (fold selectivity values greater than 100)
COc1cc(CNC(=O)[C@@H]2C[C@@H](Cc3ccc(C)cc3)CN2C(=O)[C@@H]2NCCC[C@@H]2C(=O)N2CCCC2)cc2cnn(C)c12 [Example M05799, (2S,4R)-N-((7-methoxy-1-methyl-1H-indazol-5-yl)methyl)-4-(4-methylbenzyl)-1-((2R,3S)-3-(pyrrolidine-1-carbonyl)piperidine-2-carbonyl)pyrrolidine-2-carboxamide] | ∘∘∘ | > 6.70 | ++ (a fold selectivity value of 10 to 100)
Cc1ccc(C[C@@H]2C[C@@H](C(=O)NCc3ccc4c(cnn4C)c3)N(C(=O)[C@@H]3NCCC[C@@H]3C(=O)N3C4CCC3CC4)C2)cc1 [Example M05804, (2S,4R)-1-((2R,3S)-3-(7-azabicyclo[2.2.1]heptane-7-carbonyl)piperidine-2-carbonyl)-N-((1-methyl-1H-indazol-5-yl)methyl)-4-(4-methylbenzyl)pyrrolidine-2-carboxamide] | ∘∘∘ | 6.10 to 6.70 | +++ (fold selectivity values greater than 100)
Cc1ccc(C[C@@H]2C[C@@H](C(=O)NCc3ccc4c(c3)c(F)nn4C)N(C(=O)[C@@H]3NCCC[C@@H]3C(=O)N3CCCC3)C2)cc1 [Example M05806, (2S,4R)-N-((3-fluoro-1-methyl-1H-indazol-5-yl)methyl)-4-(4-methylbenzyl)-1-((2R,3S)-3-(pyrrolidine-1-carbonyl)piperidine-2-carbonyl)pyrrolidine-2-carboxamide] | ∘∘∘ | > 6.70 | +++ (fold selectivity values greater than 100)
